Laboratory results from ChEMBL document CHEMBL1914343, “Recent progress in synthesis and bioactivity studies of indolizines” (Eur J Med Chem, 2011).
Values after ≈ are worked out from the molar mass of the structure shown. Active and inactive are the calls of the source. The rule behind the calls is not given here.

Tests used:
[1] = molecular target: Substance-P receptor (Homo sapiens, UniProt P25103); experiment: Antagonist activity at human NK1 receptor expressed in CHO cells assessed as inhibition of SP-induced intracellular Ca2+ increase by Fura-2 assay; type: functional, cell-based; conditions: read-out: pA2 (converted)
Sequence of Substance-P receptor (P25103 whole entry): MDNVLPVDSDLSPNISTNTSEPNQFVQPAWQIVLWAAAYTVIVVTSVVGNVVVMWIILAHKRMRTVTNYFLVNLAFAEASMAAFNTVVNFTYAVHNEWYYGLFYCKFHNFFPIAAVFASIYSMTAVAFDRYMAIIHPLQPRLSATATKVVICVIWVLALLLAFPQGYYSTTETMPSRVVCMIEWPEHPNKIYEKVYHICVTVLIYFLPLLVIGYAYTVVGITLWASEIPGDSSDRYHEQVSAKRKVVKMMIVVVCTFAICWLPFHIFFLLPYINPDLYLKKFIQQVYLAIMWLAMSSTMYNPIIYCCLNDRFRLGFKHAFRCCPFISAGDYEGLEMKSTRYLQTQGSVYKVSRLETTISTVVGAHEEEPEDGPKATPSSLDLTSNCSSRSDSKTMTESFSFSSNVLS

[2] = molecular target: T1, Estrogen receptor (Homo sapiens, UniProt P03372)
T1 sequence (P03372 whole entry): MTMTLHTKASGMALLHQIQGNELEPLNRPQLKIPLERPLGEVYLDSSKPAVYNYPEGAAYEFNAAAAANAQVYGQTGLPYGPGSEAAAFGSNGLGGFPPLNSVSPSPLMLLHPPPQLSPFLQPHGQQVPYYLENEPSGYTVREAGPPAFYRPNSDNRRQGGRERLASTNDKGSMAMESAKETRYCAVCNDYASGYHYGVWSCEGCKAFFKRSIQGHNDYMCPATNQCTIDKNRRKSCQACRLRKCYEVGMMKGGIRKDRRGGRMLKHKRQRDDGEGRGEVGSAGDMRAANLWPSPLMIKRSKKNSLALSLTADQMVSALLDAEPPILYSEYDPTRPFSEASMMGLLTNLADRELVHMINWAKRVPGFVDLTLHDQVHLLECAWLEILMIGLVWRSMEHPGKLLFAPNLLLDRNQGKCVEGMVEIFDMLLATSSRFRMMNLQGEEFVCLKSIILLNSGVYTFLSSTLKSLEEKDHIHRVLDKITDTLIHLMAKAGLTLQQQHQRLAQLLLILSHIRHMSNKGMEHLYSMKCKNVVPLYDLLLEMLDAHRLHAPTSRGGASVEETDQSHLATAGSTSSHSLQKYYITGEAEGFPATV
Description: Agonist activity at estrogen receptor

[3] = test system: Escherichia coli; experiment: Antibacterial activity against Escherichia coli at 100 ug/mL; type: functional, organism-based
[4] = test system: Streptomyces albus; experiment: Antibacterial activity against Streptomyces albus at 100 ug/mL; type: functional, organism-based
[5] = test system: Candida albicans; experiment: Antifungal activity against Candida albicans at 100 ug/mL; type: functional, organism-based
[6] = test system: Aspergillus flavus; experiment: Antifungal activity against Aspergillus flavus at 100 ug/mL; type: functional, organism-based
[7] = Apparent permeability across human Caco2 cells; type: ADME, cell-based; conditions: Caco-2
[8] = Half life in human liver microsomes; type: ADME, Microsome
[9] = molecular target: Albumin (Homo sapiens, UniProt P02768); experiment: Binding affinity to human serum albumin; type: ADME; conditions: isolated protein
Sequence of Albumin (P02768 whole entry): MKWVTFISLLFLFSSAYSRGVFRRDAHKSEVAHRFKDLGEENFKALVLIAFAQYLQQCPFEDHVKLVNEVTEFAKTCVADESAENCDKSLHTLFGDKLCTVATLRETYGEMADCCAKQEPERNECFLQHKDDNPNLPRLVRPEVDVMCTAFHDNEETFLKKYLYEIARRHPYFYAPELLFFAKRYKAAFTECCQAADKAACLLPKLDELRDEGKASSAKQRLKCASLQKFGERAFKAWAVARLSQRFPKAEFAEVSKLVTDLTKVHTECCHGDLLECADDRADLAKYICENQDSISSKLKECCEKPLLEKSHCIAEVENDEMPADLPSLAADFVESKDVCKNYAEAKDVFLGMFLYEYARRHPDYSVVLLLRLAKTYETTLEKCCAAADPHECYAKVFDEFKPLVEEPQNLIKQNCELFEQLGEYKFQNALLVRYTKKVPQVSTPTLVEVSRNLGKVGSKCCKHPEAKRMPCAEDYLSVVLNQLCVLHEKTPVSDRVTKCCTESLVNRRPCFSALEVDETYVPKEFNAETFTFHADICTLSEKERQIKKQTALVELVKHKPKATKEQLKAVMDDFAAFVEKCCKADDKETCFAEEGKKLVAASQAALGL

[10] = molecular target: Histamine H3 receptor (Homo sapiens, UniProt Q9Y5N1); experiment: Antagonist activity at human histamine H3 receptor expressed in […] cells; type: functional, cell-based, SK-N-MC; conditions: read-out: pA2 (converted)
Sequence of Histamine H3 receptor (Homo sapiens, UniProt Q9Y5N1) (Q9Y5N1 whole entry): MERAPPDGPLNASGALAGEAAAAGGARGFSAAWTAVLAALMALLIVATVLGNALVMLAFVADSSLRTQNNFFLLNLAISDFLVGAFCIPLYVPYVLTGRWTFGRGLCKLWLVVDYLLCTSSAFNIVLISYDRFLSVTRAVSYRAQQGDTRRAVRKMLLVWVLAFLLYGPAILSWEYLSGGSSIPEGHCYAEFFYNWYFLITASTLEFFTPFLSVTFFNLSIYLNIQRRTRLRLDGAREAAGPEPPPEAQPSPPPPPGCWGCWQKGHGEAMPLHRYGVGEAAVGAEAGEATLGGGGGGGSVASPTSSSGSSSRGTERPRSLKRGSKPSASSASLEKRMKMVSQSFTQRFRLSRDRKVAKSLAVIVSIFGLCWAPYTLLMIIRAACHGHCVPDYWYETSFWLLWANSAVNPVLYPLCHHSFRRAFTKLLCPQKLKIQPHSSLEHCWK

[11] = molecular target: Histamine H3 receptor (Rattus norvegicus, UniProt Q9QYN8); experiment: Antagonist activity at rat histamine H3 receptor expressed in […] cells; type: functional, cell-based, SK-N-MC; conditions: read-out: pA2 (converted)
Sequence of Histamine H3 receptor (Rattus norvegicus, UniProt Q9QYN8) (Q9QYN8 whole entry): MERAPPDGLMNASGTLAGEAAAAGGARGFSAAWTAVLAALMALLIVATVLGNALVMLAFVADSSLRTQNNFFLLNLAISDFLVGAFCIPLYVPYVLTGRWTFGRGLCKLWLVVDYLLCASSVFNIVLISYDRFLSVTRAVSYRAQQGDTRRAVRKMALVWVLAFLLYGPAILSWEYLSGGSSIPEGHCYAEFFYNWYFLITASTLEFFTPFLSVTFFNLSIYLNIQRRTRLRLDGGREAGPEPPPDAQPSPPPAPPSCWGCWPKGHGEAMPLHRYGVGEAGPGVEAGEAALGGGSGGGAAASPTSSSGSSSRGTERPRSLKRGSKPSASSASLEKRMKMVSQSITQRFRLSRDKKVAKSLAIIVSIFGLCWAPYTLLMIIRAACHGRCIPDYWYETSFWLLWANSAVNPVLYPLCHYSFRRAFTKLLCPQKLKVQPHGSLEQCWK

[12] = molecular target: T2, Substance-K receptor (Homo sapiens, UniProt P21452); experiment: Antagonist activity at human NK2 receptor expressed in CHO cells assessed as inhibition of Neurokinin A-induced increase in intracellular Ca2+ increase by Fura-2 assay; type: functional, cell-based; conditions: read-out: pA2 (converted)
T2 sequence (P21452 whole entry): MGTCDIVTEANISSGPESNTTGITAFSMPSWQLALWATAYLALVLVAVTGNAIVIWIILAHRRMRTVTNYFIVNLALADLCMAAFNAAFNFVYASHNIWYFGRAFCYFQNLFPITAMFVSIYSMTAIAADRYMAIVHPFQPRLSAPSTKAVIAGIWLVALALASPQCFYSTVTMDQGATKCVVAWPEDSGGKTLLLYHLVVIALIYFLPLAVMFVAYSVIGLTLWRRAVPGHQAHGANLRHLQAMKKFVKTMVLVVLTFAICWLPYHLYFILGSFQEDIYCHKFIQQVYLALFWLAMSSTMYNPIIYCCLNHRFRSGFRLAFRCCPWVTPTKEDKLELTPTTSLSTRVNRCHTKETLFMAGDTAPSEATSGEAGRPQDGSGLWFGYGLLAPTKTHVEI

[13] = test system: Mycobacterium tuberculosis; experiment: Ratio MIC for ethambutol to compound for Mycobacterium tuberculosis H37Rv by agar diffusion method; type: functional
[14] = test system: Mycobacterium tuberculosis; experiment: Ratio MIC for ciprofloxacin to compound for Mycobacterium tuberculosis H37Rv by agar diffusion method; type: functional
[15] = test system: Mycobacterium tuberculosis; experiment: Antimycobacterial activity against Mycobacterium tuberculosis H37Rv by agar diffusion method; type: functional
[16] = test system: Mycobacterium tuberculosis; experiment: Antimycobacterial activity against Mycobacterium tuberculosis H37Rv ATCC 27294 by microplate alamar blue assay; type: functional
[17] = Inhibition of soybean arachidonate 15-lipoxygenase; parameters: species or system Glycine max
[18] = test system: Mycobacterium tuberculosis; experiment: Antimycobacterial activity against Mycobacterium tuberculosis H37Rv ATCC 27294 at 6.25 ug/mL by microplate alamar blue assay; type: functional
[19] = test system: Pichia kudriavzevii; experiment: Antifungal activity against Candida krusei at 32 ug/mL; type: functional, organism-based
[20] = test system: Plasmodium falciparum; experiment: Antiplasmodial activity against Plasmodium falciparum; type: functional
[21] = test system: Trypanosoma brucei rhodesiense; experiment: Antitrypanosomal activity against Trypanosoma brucei rhodesiense; type: functional
[22] = Antioxidant activity assessed as inhibition of lipid peroxidation after 30 mins; type: functional
[23] = test system: Leishmania donovani; experiment: Antileishmanial activity against Leishmania donovani; type: functional
[24] = molecular target: T3, Polyunsaturated fatty acid lipoxygenase ALOX15 (Oryctolagus cuniculus, UniProt P12530); experiment: Inhibition of rabbit reticulocytes arachidonate 15-lipoxygenase
T3 sequence (P12530 whole entry): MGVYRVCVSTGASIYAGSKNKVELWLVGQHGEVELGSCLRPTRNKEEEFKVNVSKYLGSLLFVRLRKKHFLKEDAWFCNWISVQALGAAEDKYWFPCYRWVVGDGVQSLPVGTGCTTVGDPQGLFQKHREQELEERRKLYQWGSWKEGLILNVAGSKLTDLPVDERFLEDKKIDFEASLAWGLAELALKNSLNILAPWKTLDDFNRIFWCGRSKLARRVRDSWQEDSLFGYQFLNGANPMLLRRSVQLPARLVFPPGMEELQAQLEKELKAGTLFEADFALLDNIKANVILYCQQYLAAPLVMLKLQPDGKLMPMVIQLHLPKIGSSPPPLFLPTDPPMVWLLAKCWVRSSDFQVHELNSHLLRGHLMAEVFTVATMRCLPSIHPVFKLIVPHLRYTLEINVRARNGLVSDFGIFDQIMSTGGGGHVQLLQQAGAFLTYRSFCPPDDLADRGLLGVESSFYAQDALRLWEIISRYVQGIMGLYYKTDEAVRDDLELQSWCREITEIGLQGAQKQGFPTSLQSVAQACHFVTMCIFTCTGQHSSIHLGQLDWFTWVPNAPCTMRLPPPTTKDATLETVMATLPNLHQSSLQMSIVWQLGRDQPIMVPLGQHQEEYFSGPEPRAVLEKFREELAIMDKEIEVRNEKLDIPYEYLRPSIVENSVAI

[25] = test system: Trypanosoma cruzi; experiment: Antitrypanosomal activity against Trypanosoma cruzi; type: functional
[26] = test system: Mus musculus; experiment: Antiinflammatory activity in […] mouse assessed as inhibition of carrageenan-induced edema after 3 hrs relative to control; type: functional
[27] = test system: Mus musculus; experiment: Antiinflammatory activity in […] mouse assessed as inhibition of carrageenan-induced edema after 2 hrs relative to control; type: functional

COC(=O)C1=C2CCC(C(=O)N[C@@H](CCc3c[nH]c4ccccc34)C(=O)NCc3cc(C(F)(F)F)cc(C(F)(F)F)c3)N2C(=O)C(NC(C)=O)C1 (stereo partly specified) showed a Kb [1] of 100 nM.
With CCc1c(-c2ccc(O)cc2)c2ccc3cccc1n32 the IC50 [2] was 9.5 nM.
For CCOC(=O)C1(C#N)C(c2ccc(Cl)cc2)=C(C(=O)c2cccs2)N2C(C)=CC=CC21 (stereo unspecified), the Activity [3] was “Active”, the Activity [4] was “Active” and the Activity [5] was “Active”. For the same molecule, the Activity [6] was “inactive”.
c1ccn2cc(-c3ccc(OCCCN4CCCCC4)cc3)cc2c1 showed a Papp [7] of 14.1 ×10⁻⁶ cm/s, a half-life [8] of 10 min and an Activity [9] of 50%. It also gave a Kb [10] of 3.16 nM and a Kb [11] of 19.5 nM.
For COC(=O)C1=C2CCC(C(=O)N[C@@H](CCc3c[nH]c4ccccc34)C(=O)N(C)Cc3ccccc3)N2C(=O)C(NC(=O)OCc2ccccc2)C1 (stereo partly specified), the Kb [12] was 200 nM and the Kb [1] was 200 nM.
CCOC(=O)c1c(-c2ccc(F)cc2)cc2c3ccccc3ccn12 gave a Ratio [13] of 7.6, a Ratio [14] of 4.7 and an MIC [15] of 1 µM (≈ 0.333 µg/mL).
Work on CCOC(=O)c1c(-c2ccc(Cl)cc2)cc2c3ccccc3ccn12 yielded an MIC [15] of 2.3 µM (≈ 0.805 µg/mL).
Work on N#Cc1ccn2c(-c3ccccc3)c(-c3ccccc3)c(C(O)C3CCCCC3)c2c1 (stereo unspecified) yielded an MIC [16] of over 6.25 µg/mL and an IC50 [17] of 23000 nM.
With CC1=CC=CC2[C@@H]3C(=O)N(c4ccccc4)C(=O)[C@@H]3C(C(=O)c3cccs3)N12 (stereo partly specified) the Activity [3] was “Active”, the Activity [4] was “Active” and the Activity [5] was “Active”. For the same molecule, the Activity [6] was “Active”.
With N#Cc1ccn2c(-c3ccccc3)c(-c3ccccc3)c(C(O)c3ccc(Cl)cc3)c2c1 (stereo unspecified) the MIC [16] was 6.25 µg/mL (≈ 14.4 µM), the inhibition at 6.25 µg/mL [18] was 95% and the IC50 [17] was 23000 nM.
In the case of COC(=O)C1=C2CCC(C(=O)N[C@@H](CCc3c[nH]c4ccccc34)C(=O)N(C)Cc3ccccc3)N2C(=O)C(NC(C)=O)C1 (stereo partly specified), the Kb [12] is reported as 631 nM and the Kb [1] is reported as 126 nM.
For N#Cc1ccn2c(-c3ccccc3)c(-c3ccccc3)c(C(O)c3ccccc3)c2c1 (stereo unspecified), the Activity [19] was “inactive”, the MIC [20] was 2.3 µg/mL (≈ 5.74 µM) and the MIC [16] was 6.25 µg/mL (≈ 15.6 µM). For the same molecule, the MIC [21] was 12 µg/mL (≈ 30 µM), the IC50 [22] was 35800 nM and the inhibition at 6.25 µg/mL [18] was 100%. For the same molecule, the MIC [23] was 2.3 µg/mL (≈ 5.74 µM), the IC50 [24] was 48000 nM and the MIC [25] was 3.2 µg/mL (≈ 7.99 µM). The IC50 [17] was 35000 nM.
With Cc1c(-c2ccc(OCCCN3CCCCC3)cc2)cc2ccccn12 the half-life [8] was 54 min.
For c1csc(-c2cc3ccccn3c2)c1, the Activity [3] was “Active”, the Activity [4] was “Active” and the Activity [5] was “Active”. The Activity [6] was “inactive”.
With N#Cc1cc(C(=O)c2cc3ccccc3o2)n2ccccc12 the “inhibition (INH)” value [26] was 24%.
With COC(=O)c1cc(C(=O)c2cc3ccccc3o2)n2ccccc12 the “inhibition (INH)” value [27] was 36%.
In the case of Cc1ccc(C(O)c2c(-c3ccccc3)c(-c3ccccc3)n3ccc(C#N)cc23)cc1 (stereo unspecified), the MIC [16] is reported as 6.25 µg/mL (≈ 15.1 µM), the inhibition at 6.25 µg/mL [18] is reported as 90% and the IC50 [17] is reported as 22000 nM.
Molecule N#Cc1c(-c2ccc(F)cc2)c([N+](=O)[O-])c2c3ccccc3ccn12 has an MIC [15] of 3.9 µM (≈ 1.29 µg/mL).
With CC(C)Cc1ccc(C(C)C(=O)O)cc1 (stereo unspecified) [IBUPROFEN] the “inhibition (INH)” value [27] was 59% and the “inhibition (INH)” value [26] was 62%.
